From the supplement of paper PMC11061612

Tests used:
Assay in all cases: Bliss excess, mean over the matrix (fraction); higher = more synergy
[1] = test system: BICR22 (Oral Cavity Carcinoma)
Summary of the method: (§1)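 Bliss excess equals the observed combination effect minus the expected value EA + EB − EA·EB, where EA and EB are the effects of each agent alone. Combination Emax is the second-highest inhibition within the matrix. Inhibition was scaled from CellTiter-Glo 2.0 luminescence, with 0 set by vehicle wells and 1 by blank wells, after 72 hours of two-drug dosing of cells plated in 1536-well plates.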

[2] = test system: CAPAN-2 (Pancreatic Carcinoma)
Summary of the method: as §1

[3] = test system: CCK-81 (Colorectal Carcinoma)
Summary of the method: as §1

[4] = test system: COLO-320-HSR (Colorectal Carcinoma)
Summary of the method: as §1

[5] = test system: ECC10 (Gastric Carcinoma)
Summary of the method: as §1

[6] = test system: FU97 (Gastric Carcinoma)
Summary of the method: as §1

[7] = test system: HCC1954 (Breast Carcinoma)
Summary of the method: as §1

[8] = test system: IGR-37 (Melanoma)
Summary of the method: as §1

[9] = test system: LN-405 (Glioblastoma)
Summary of the method: as §1

[10] = test system: NCI-H1581 (Non-Small Cell Lung Carcinoma)
Summary of the method: as §1

[11] = test system: NCI-H1666 (Lung Adenocarcinoma)
Summary of the method: as §1

[12] = test system: NCI-H2066 (Squamous Cell Lung Carcinoma)
Summary of the method: as §1

[13] = test system: NCI-H2591 (Mesothelioma)
Summary of the method: as §1

[14] = test system: NCI-H64 (Small Cell Lung Carcinoma)
Summary of the method: as §1

[15] = test system: NY (Osteosarcoma)
Summary of the method: as §1

[16] = test system: ONS-76 (Other Solid Carcinomas)
Summary of the method: as §1

[17] = test system: PANC-10-05 (Pancreatic Carcinoma)
Summary of the method: as §1

[18] = test system: TT (Thyroid Gland Carcinoma)
Summary of the method: as §1

[19] = test system: U-2-OS (Osteosarcoma)
Summary of the method: as §1

[20] = test system: VCaP (Prostate Carcinoma)
Summary of the method: as §1

CS(=O)(=O)CCNCc1ccc(-c2ccc3ncnc(Nc4ccc(OCc5cccc(F)c5)c(Cl)c4)c3c2)o1 [Lapatinib] + NC1(c2ccc(-c3nc4ccn5c(=O)[nH]nc5c4cc3-c3ccccc3)cc2)CCC1 [MK-2206] (first compound max 10 µM, 7x7, partner max 10 µM)
Bliss excess [1]: 0.0346
Bliss excess [2]: -0.0098
Bliss excess [3]: 0.0908
Bliss excess [4]: 0.0102
Bliss excess [5]: 0.0211
Bliss excess [6]: 0.0294
Bliss excess [7]: 0.0952
Bliss excess [8]: 0.0428
Bliss excess [9]: -0.0277
Bliss excess [10]: -0.0046
Bliss excess [11]: -0.0093
Bliss excess [12]: 0.0521
Bliss excess [13]: -0.0408
Bliss excess [14]: 0.022
Bliss excess [15]: 0.0087
Bliss excess [16]: 0.0048
Bliss excess [17]: -0.0218
Bliss excess [18]: -0.0043
Bliss excess [19]: -0.029
Bliss excess [20]: -0.0421
